What all share (experiment): growth of human tumour cells (NCI), 48 h
Test [1] relates to HOP-62 NSCLC.
For test [2], the system named is MOLT-4 leukemia.
Test [3] concerns A498 renal.
Test [4] concerns U251 CNS.
For test [5], the system named is HS 578T breast.
For test [6], the system named is HT29 colon.
Test [7] deals with UACC-62 melanoma.
For test [8], the system named is NCI-H226 lung.
For test [9], the system named is NCI-H460 lung.
The subject of test [10] is SNB-19 CNS.
Test [11] has as its system SF-268 CNS.
The test system of test [12] is UACC-257 melanoma.
The subject of test [13] is RPMI-8226 leukemia.
Test [14] has as its system SK-MEL-28 melanoma.
Test [15] deals with CAKI-1 renal.
For test [16], the system named is SN12C renal.
Test [17] has as its system MALME-3M melanoma.
The test system of test [18] is NCI/ADR-RES ovarian.
In test [19] the test system is SNB-75 CNS.
For test [20], the system named is COLO 205 colon.

We go through three molecules from PubChem BioAssay (NCI).

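Cultured in 96-well plates, cells were exposed to test compound for 48 hours across five concentrations. TGI: concentration producing complete growth inhibition.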

With `CC(=O)NNc1nc(C)c(C(/C=C/c2ccc([N+](=O)[O-])cc2)=N/N)s1`, the TGI in test [1], in [2], in [3], in [4], in [5] and in [6] was more than 100 µM throughout. The TGI in test [7], in test [8], in test [9], in test [10], in test [11] and in test [12] was more than 100 µM in each case. Also, the TGI is 89.2 µM in test [13]; more than 100 µM in test [14]; more than 100 µM in [15]; more than 100 µM in [16]; more than 100 µM in test [17]; more than 100 µM in [18]. Besides, the TGI in [19] and in [20] was more than 100 µM throughout.

For the molecule `N#CC(c1ccnc(Cl)n1)c1nc2ccccc2s1` (stereo not given), the TGI in test [1] was 56.8 µM; in test [2], more than 39.3 µM; in test [3] it was 46.7 µM; in [4] it was 13.3 µM; in test [5] it was 28.4 µM; in [6], 10.3 µM. In addition, the TGI in test [7] is 15.8 µM; in [8] it was more than 47.4 µM; in test [9] it was more than 100 µM; in test [10], more than 75.1 µM; in test [11] it was more than 63.6 µM; in [12], 41.2 µM. Further, the TGI in test [13] is 25.9 µM; in [14], more than 100 µM; in [15] it was more than 45.4 µM; in test [16], 10.1 µM; in test [17] it was more than 26.5 µM; in [18], 19.7 µM. Besides, the TGI in test [19] is 13 µM; in test [20], 24.6 µM.

On to `CN(C)c1ccc(/C=C(\NC(=O)c2ccccc2)C(=O)NCC(=O)O)cc1`, for which the TGI in test [1], in test [2], in test [3], in test [4], in test [5] and in [6] was more than 100 µM in each case. Besides, the TGI in test [7], in test [8], in test [9], in test [10], in [11] and in [12] was more than 100 µM each time. Moreover, the TGI in test [13], in [14], in test [15], in test [16], in test [17] and in test [18] was more than 100 µM each time. For the same molecule, the TGI in test [19] and in test [20] was more than 100 µM in each case.
